Laboratory results: PubChem BioAssay (NCI)
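Values below derive from 48-hour exposures of cells grown in 96-well plates, with endpoints linearly interpolated between the two concentrations bracketing the appropriate inhibition level. At the GI50, growth is halved. TGI is the concentration that stops growth completely.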

Columns and labels:
Assay in all cases: DTP human tumour cell line panel, 48 h
[1] = tested on: TK-10 renal
[2] = tested on: U251 CNS
[3] = tested on: SR leukemia
[4] = tested on: HCC-2998 colon
[5] = tested on: UO-31 renal
[6] = tested on: KM12 colon
[7] = tested on: LOX IMVI melanoma
[8] = tested on: RXF 393 renal

Row | Structure (SMILES) | TGI [1] | TGI [2] | TGI [3] | TGI [4] | TGI [5] | TGI [6] | TGI [7] | TGI [8] | GI50 [1] | GI50 [2] | GI50 [3] | GI50 [4] | GI50 [5] | GI50 [6] | GI50 [7] | GI50 [8]
1 | COc1ccc(C(=O)C(CC2C(=O)CC(C)(C)C(C(=O)C(=O)Nc3c(C)cccc3C)C2=O)c2ccc(OC)cc2)cc1 (centres undefined) | > 100 µM | > 100 µM | 91.9 µM | > 100 µM | > 100 µM | > 100 µM | > 100 µM | > 100 µM | – | – | – | – | – | – | – | –
2 | Cc1cccc2c1ccc1c3occ(C)c3c(=O)oc21 | > 100 µM | > 100 µM | > 100 µM | > 100 µM | > 100 µM | > 100 µM | > 100 µM | – | > 100 µM | > 100 µM | > 100 µM | > 100 µM | > 100 µM | > 100 µM | 80.3 µM | –
3 | COc1ccc(OC)c(-c2cc(C(=O)O)c3cc4ccccc4cc3n2)c1 | > 100 µM | > 100 µM | > 100 µM | – | – | > 100 µM | > 100 µM | > 100 µM | – | – | – | – | – | – | – | –
4 | O=C1CCCC(=O)C1C(=O)c1ccc(C(F)(F)F)cc1[N+](=O)[O-] | > 100 µM | > 100 µM | > 100 µM | > 100 µM | > 100 µM | > 100 µM | – | – | > 100 µM | > 100 µM | > 100 µM | > 100 µM | > 100 µM | > 100 µM | – | –
5 | CN1CCN(CCCOc2ccc3nc(Nc4ccc(C(F)(F)F)c(Cl)c4)ccc3c2)CC1 | 3.51 µM | 2.98 µM | 4.01 µM | 3.26 µM | 3.68 µM | 3.05 µM | 2.32 µM | 3.03 µM | 1.8 µM | 1.46 µM | 1.17 µM | 1.72 µM | 1.72 µM | 1.5 µM | 1.07 µM | 1.42 µM
6 | O=C1C(Cl)=C(Nc2ccccn2)C(=O)c2ccccc21 | 25.5 µM | 11 µM | 5.32 µM | 33.7 µM | 7.2 µM | 10.8 µM | 5.29 µM | 21.8 µM | 12.9 µM | 3.24 µM | 2.49 µM | 17.8 µM | 2.27 µM | 3.45 µM | 2.04 µM | 10.2 µM
7 | CC(=O)OC1CC(C)c2c(Cl)ncnc21 (centres undefined) | > 100 µM | – | > 100 µM | > 100 µM | > 100 µM | > 100 µM | > 100 µM | > 100 µM | > 100 µM | – | 78.2 µM | > 100 µM | > 100 µM | > 100 µM | > 100 µM | > 100 µM
8 | COc1cc(CCNc2nc3cc(N)cc(N)c3nc2-c2ccccc2)cc(OC)c1 | 12.1 µM | 3.11 µM | 2.22 µM | – | 3.78 µM | 3.54 µM | 3.17 µM | 4.8 µM | 3.49 µM | 1.67 µM | 0.354 µM | – | 1.94 µM | 1.69 µM | 1.65 µM | 1.59 µM
9 | Cc1cn2c(/C=N/N=C(N)N)c(-c3cc(Cl)sc3Cl)nc2s1 | 2.95 µM | – | – | 1.6 µM | – | 1.59 µM | – | – | 1.15 µM | – | – | 0.888 µM | – | 0.736 µM | – | –
10 | Cc1ccc(C(CC(=O)c2ccccc2)C(C(=O)c2ccccc2)C(c2ccc(C)cc2)C2C(=O)NC(=S)NC2=O)cc1 (centres undefined) | > 50 µM | > 50 µM | – | > 50 µM | 29.3 µM | > 50 µM | > 50 µM | > 50 µM | 20.6 µM | 16.3 µM | – | 8.68 µM | 6.93 µM | 15 µM | 17 µM | 30.3 µM
11 | COc1ccc(CCN2COc3ccc4ccc(=O)oc4c3C2)cc1OC | > 100 µM | > 100 µM | 50.5 µM | > 100 µM | > 100 µM | > 100 µM | 49.4 µM | > 100 µM | – | – | – | – | – | – | – | –
12 | C=CCCC(O)c1ccc(CCCCCCCCCCC)o1 (centres undefined) | 31.9 µM | 31.5 µM | – | 36.5 µM | 36.1 µM | 51 µM | 47.2 µM | 36.5 µM | 15.8 µM | 17.5 µM | – | 18.4 µM | 20.9 µM | 20.6 µM | 31.8 µM | 18.5 µM
13 | COc1cc(C2C(C(=O)OCc3ccccc3)=C(C)NC(C)=C2C(=O)OCc2ccccc2)cc(OC)c1OC | – | > 100 µM | > 100 µM | – | > 100 µM | – | – | – | – | 4.37 µM | 2.22 µM | – | 2.22 µM | – | – | –
14 | O=C(NCc1cccs1)OC1CC2CCC1C2 (centres undefined) | > 100 µM | > 100 µM | > 100 µM | – | > 100 µM | > 100 µM | > 100 µM | > 100 µM | – | – | – | – | – | – | – | –
15 | O=[N+]([O-])c1ccc(NN=C2c3ccccc3Cc3ccccc32)c([N+](=O)[O-])c1 | > 100 µM | > 100 µM | 11.5 µM | > 100 µM | > 100 µM | 79.9 µM | > 100 µM | > 100 µM | – | – | – | – | – | – | – | –
16 | CCc1cccc(CC)c1NC(=O)c1ccn2c1CCc1cnc(Nc3ccc(N4CCN(C)CC4)cc3OC)nc1-2 | 16.2 µM | 5.99 µM | – | 8.63 µM | 7.74 µM | 14.8 µM | – | 3.08 µM | 2.93 µM | 1.84 µM | – | 2.28 µM | 1.55 µM | 2.63 µM | – | 1.58 µM
17 | CC(=O)Nc1ccc(S(=O)(=O)c2ccc(NC(C)=O)cc2)cc1 | > 100 µM | – | > 100 µM | > 100 µM | > 100 µM | > 100 µM | > 100 µM | > 100 µM | > 100 µM | – | > 100 µM | > 100 µM | > 100 µM | > 100 µM | > 100 µM | > 100 µM
18 | [O]=[W](=[O])([OH])[OH] | > 100 µM | > 100 µM | > 100 µM | > 100 µM | > 100 µM | > 100 µM | – | > 100 µM | > 100 µM | > 100 µM | > 100 µM | > 100 µM | > 100 µM | > 100 µM | – | > 100 µM
19 | CCCN(CCC)c1ccc(/C=N/NC(=O)c2cccnc2)cc1 | > 100 µM | > 100 µM | > 100 µM | > 100 µM | > 100 µM | > 100 µM | 58.5 µM | 42.1 µM | 32.4 µM | 26.9 µM | 6.82 µM | 25 µM | 43.3 µM | 20.3 µM | 17.3 µM | 19.2 µM
